Data from patent US20050048490A1, “Proteins associated with cell growth, differentiation, and death” (incyte corp., priority 2002, published 2005).

Assays:
SEQ ID NO:104 = test: Microarray expression analysis, preadipocytes exposed to differentiation factors versus untreated; type: cell-based; conditions: human preadipocytes treated with human insulin and PPAR-γ agonist for 3 days, then insulin
Procedure: (§1) Total RNA is isolated from tissue samples using the guanidinium thiocyanate method and poly(A)^+ RNA is purified using the oligo-(dT) cellulose method. Each poly(A)^+ RNA sample is reverse transcribed using MMLV reverse-transcriptase, 0.05 pg/μl oligo-(dT) primer (21mer), 1× first strand buffer, 0.03 units/μl RNase inhibitor, 500 μM dATP, 500 μM dGTP, 500 μM dTTP, 40 μM dCTP, 40 μM dCTP-Cy3 (BDS) or dCTP-Cy5 (Amersham Biosciences). The reverse transcription reaction is performed in a […] containing 200 ng poly(A)^+ RNA with GEMBRIGHT kits (Incyte Genomics). Specific control poly(A)^+ RNAs are synthesized by in vitro transcription from non-coding yeast genomic DNA. […]
(§2) Sequences of the present invention are used to generate array elements. […] Array elements are amplified in thirty cycles of PCR from an initial quantity of 1-2 ng to a final quantity greater than 5 μg. […]
(§3) Reporter-labeled hybridization complexes are detected with a microscope equipped with an Innova 70 mixed gas 10 W laser (Coherent, Inc., Santa Clara Calif.) capable of generating spectral lines at 488 nm for excitation of Cy3 and at 632 nm for excitation of Cy5. […]
(§4) A grid is superimposed over the fluorescence signal image such that the signal from each spot is centered in each element of the grid. […]

SEQ ID NO:96 = test: Microarray expression analysis, steroid-treated versus untreated C3A cells; type: cell-based, human; conditions: early confluent C3A cells treated at 1, 10, and 100 μM for 1, 3, and 6 hours
Procedure: as §1, §2, §3, §4

SEQ ID NO:94 = test: Microarray expression analysis, activated versus untreated Jurkat cells; type: cell-based, human; conditions: Jurkat cells treated with combinations of graded doses of PMA (5 nM-1 μM) and ionomycin (50 ng/ml-10μ/ml), 1 hour time point
Procedure: as §1, §2, §3, §4

SEQ ID NO:101 = test: Microarray expression analysis, TNF-α treated versus untreated HUVECs; type: cell-based, human; conditions: HUVECs at 85% confluence treated for 0.33, 0.66, 1, 4, 8, 24, 48, and 72 hours, versus untreated HUVECs (0 hour)
Procedure: as §1, §2, §3, §4

SEQ ID NO:102 = test: as above; type: cell-based, human; conditions: HUVECs at 85% confluence treated for 0.33, 0.66, 1, 4, 8, 24, 48, and 72 hours, versus untreated HUVECs (0 hour)
Procedure: as §1, §2, §3, §4

Row | Compound | expression of SEQ ID NO:96 (SEQ ID NO:96) | expression of SEQ ID NO:94 (SEQ ID NO:94) | other results
1 | human insulin: differentiation factor used on human preadipocytes | – | – | expression of SEQ ID NO:104 (SEQ ID NO:104): decreased expression
2 | 6-methyl-17-hydroxyprogesterone [medroxyprogesterone] | decreased expression | – | –
3 | C[C@H](CCC(=O)O)C[C@H](C)C[C@H](C)C(=O)/C=C(\O)[C@H](C)C[C@H](C)C/C=C/[C@@H](C)[C@@H](O)[C@@H](C)[C@@H](O)C[C@@H]1CC[C@@](C)([C@H]2CC[C@@](C)([C@@H](C)O)O2)O1 [ionomycin, Ionomycin] | – | decreased expression | –
4 | CCCCCCCCCCCCCC(=O)O[C@@H]1[C@@H](C)[C@@]2(O)[C@@H](C=C(CO)C[C@]3(O)C(=O)C(C)=C[C@@H]23)[C@@H]2C(C)(C)[C@]12OC(C)=O [PMA, Phorbol myristate acetate] | – | decreased expression | –
5 | C[C@H]1C[C@H]2[C@@H]3CCC4=CC(=O)C=C[C@]4(C)[C@@]3(Cl)[C@@H](O)C[C@]2(C)[C@@]1(O)C(=O)CO [beclomethasone, Beclomethasone] | decreased expression | – | –
6 | TNF-α | – | – | expression of SEQ ID NO:101 (SEQ ID NO:101): decreased expression; expression of SEQ ID NO:102 (SEQ ID NO:102): decreased expression
